System: Plasmodium yoelii nigeriensis
Experiment: Antimalarial activity against Plasmodium yoelii nigeriensis infected in po-dosed Swiss albino mouse assessed as inhibition of parasite growth administered qd for 4 days
Type: functional
Conditions: 96 h

C[C@@H]1CC[C@@H]2[C@]34OO[C@](C)(CC[C@@H]13)O[C@H]4OC(Nc1ccc(O)c(CN3CCCCC3)c1)[C@@]2(C)Br (stereo not given in full)
ED50: 11.3 mg/kg | ED90: 23.1 mg/kg

C[C@@H]1CC[C@@H]2[C@]34OO[C@](C)(CC[C@@H]13)O[C@H]4OC(Nc1ccc(O)c(CN3CCN(c4ccccn4)CC3)c1)[C@@]2(C)Br (stereo not given in full)
ED50: 7.9 mg/kg | ED90: 12.2 mg/kg

C[C@@H]1CC[C@@H]2[C@]34OO[C@](C)(CC[C@@H]13)O[C@H]4OC(Nc1ccc(O)c(CN3CCN(Cc4ccccc4)CC3)c1)[C@@]2(C)Br (stereo not given in full)
ED50: 7.12 mg/kg | ED90: 12.1 mg/kg

CCN(CC)Cc1cc(NC2O[C@@H]3O[C@@]4(C)CC[C@H]5[C@H](C)CC[C@H]([C@@]35OO4)[C@]2(C)Br)ccc1O (stereo not given in full)
ED50: 12.3 mg/kg | ED90: 24.2 mg/kg

C[C@@H]1CC[C@@H]2[C@]34OO[C@](C)(CC[C@@H]13)O[C@H]4OC(Nc1ccc(O)c(CN3CCNCC3)c1)[C@@]2(C)Br (stereo not given in full)
ED50: 12.4 mg/kg | ED90: 24.6 mg/kg

C[C@@H]1CC[C@@H]2[C@]34OO[C@](C)(CC[C@@H]13)O[C@H]4OC(Nc1ccc(O)c(CN3CCN(c4ccccc4)CC3)c1)[C@@]2(C)Br (stereo not given in full)
ED50: 5.41 mg/kg | ED90: 8.72 mg/kg

C[C@@H]1CC[C@H]2[C@@H](C)C(=O)O[C@@H]3O[C@@]4(C)CC[C@@H]1[C@]32OO4 [ARTEMISININ]
ED50: 16.4 mg/kg | ED90: 27.1 mg/kg

C[C@@H]1CC[C@@H]2[C@]34OO[C@](C)(CC[C@@H]13)O[C@H]4OC(Nc1ccc(O)c(CN3CCN(C)CC3)c1)[C@@]2(C)Br (stereo not given in full)
ED50: 9.9 mg/kg | ED90: 17.4 mg/kg

CCN1CCN(Cc2cc(NC3O[C@@H]4O[C@@]5(C)CC[C@H]6[C@H](C)CC[C@H]([C@@]46OO5)[C@]3(C)Br)ccc2O)CC1 (stereo not given in full)
ED50: 9.83 mg/kg | ED90: 16.6 mg/kg

C[C@@H]1CC[C@@H]2[C@]34OO[C@](C)(CC[C@@H]13)O[C@H]4OC(Nc1ccc(O)c(CN3CCN(c4cccc(C(F)(F)F)c4)CC3)c1)[C@@]2(C)Br (stereo not given in full)
ED50: 6.01 mg/kg | ED90: 9.28 mg/kg
